# Laboratory results from patent US7128910B2, “Moraxella catarrahalis outer membrane protein-106 polypeptide, gene sequences and uses thereof” (priority 1996, dated 2006).
# Test system: M. catarrhalis ATCC 49143
# Assay: Proteolytic digestion of intact cells followed by hemagglutination test
# Format: cell-based, Moraxella catarrhalis
# Settings: intact cells digested 1 hour at room temperature
# Procedure: All proteases were obtained from Sigma Chemicals (St. Louis, Mo.). Immediately following the protease treatment, cells were washed once in PBS and resuspended in 1 ml of PBS and the hemagglutinating activity was tested. Additionally, protease-treated bacterial cells were extracted with octyl glucoside so the outer membrane proteins could be resolved to identify specific proteins that may have been digested by the proteases.
row,Substance,Effect of protease treatment on hemagglutination activity
1,proteinase V8: Protease from Sigma Chemicals,did not affect hemagglutination activity
2,trypsin,partially destroyed hemagglutination activity
3,chymotrypsin,destroyed the hemagglutination activity
